Measured values published in patent publication US20260242759A1, “GQ/11 Protein Peptidomimetics” (Vrije Universiteit Brussel, priority 2022, published 2026).
Non-standard residues stand in square brackets, D forms with d. Residues, ends and D or L forms follow the SMILES beside them. Cha = N[C@@H](CC1CCCCC1)C(=O)O

Tests used:
[1] = biological target: T1, human muscarinic 1 receptor (M1R) (Homo sapiens, UniProt P11229); test: Radioligand binding assay (RLA) on M1R membrane extracts; conditions: IC50 of agonist without mimetic divided by IC50 with mimetic; averaged value
T1 construct: The M1R constructs used in this assay consisted of the full-length human muscarinic 1 receptor; FLAG (N); expressed in transfected cells; membrane extracts
T1 sequence (P11229 1-460): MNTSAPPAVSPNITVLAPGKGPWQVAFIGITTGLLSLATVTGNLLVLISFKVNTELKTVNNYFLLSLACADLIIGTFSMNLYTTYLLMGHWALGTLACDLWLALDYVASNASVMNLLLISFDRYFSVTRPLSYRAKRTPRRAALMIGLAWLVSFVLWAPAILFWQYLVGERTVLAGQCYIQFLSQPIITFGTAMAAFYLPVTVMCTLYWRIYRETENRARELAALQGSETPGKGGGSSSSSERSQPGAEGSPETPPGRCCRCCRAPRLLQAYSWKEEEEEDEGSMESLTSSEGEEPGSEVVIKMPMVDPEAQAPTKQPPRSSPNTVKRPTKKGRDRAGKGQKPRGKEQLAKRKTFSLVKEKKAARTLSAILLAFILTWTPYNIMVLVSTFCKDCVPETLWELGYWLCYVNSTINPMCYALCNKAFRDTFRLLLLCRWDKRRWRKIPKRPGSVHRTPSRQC
Source text: A radioligand displacement assay can quantify the pharmacological stabilization of the GPCR in the active conformation by comparing the affinities of an agonist for the basal versus the active GPCR conformer. In particular, stabilization of a GPCR in an active conformational state or specific binding to a GPCR in an active conformational state by a G protein peptidomimetic or a Gq/11 protein peptidomimetic as disclosed herein can be determined based on the shift in IC50 value of a ligand, in particular an agonist more particularly an orthosteric agonist, which binds to the GPCR when tested in the presence and the absence of the G protein peptidomimetic or the Gq/11 protein peptidomimetic. During the assay, the binding affinity of an orthosteric agonist for the receptor in presence and absence of the (allosteric) peptidomimetic is determined. Therefore, the GPCR, e.g. embedded in membrane extracts, is incubated with a radioligand and different concentrations of the agonist. By increasing the agonist concentration, radioligand will be displaced by the agonist. A leftward shift of the curve in the presence of the peptidomimetic is indicative of a peptidomimetic capable of stabilizing a GPCR in an active conformational state. A “shift” in IC50 value or IC50 shift is defined herein as the IC50 ratio of a ligand, in particular an agonist, more particularly an orthosteric agonist, which binds to the GPCR in the absence of a G protein peptidomimetic or a Gq/11 protein peptidomimetic relative to the presence of the G protein peptidomimetic or the Gq/11 protein peptidomimetic, or the IC50 value of a ligand, in particular an agonist, for binding to the GPCR in the absence of a G protein peptidomimetic or a Gq/11 protein peptidomimetic divided by the IC50 value of the ligand in the presence of the G protein peptidomimetic or the Gq/11 protein peptidomimetic in the same preparation, wherein said IC50 values are determined in a radioligand binding assay or radioligand displacement assay (RLA) as known to the skilled person. For example, a human muscarinic acetylcholine 1 receptor (M1R) radioligand binding assay using ^3H—N-methyl scopolamine (^3H-NMS) as the radioligand and increasing concentrations of acetylcholine chloride (agonist) as cold competitor may be used.
The membrane extracts were prepared from cells that overexpressed muscarinic acetylcholine 1 receptor (M1R), by resuspending the cell pellet in a buffer (1 ml buffer/2×1E7 cells) containing 20 mM Hepes (pH 7.4), 100 mM NaCl, Leupeptin and phenylmethylsulfonyl fluoride (PMSF). Afterwards the cells were vortexed and homogenized in ice using a small volume ULTRA-TURRAX® (6×10 sec). The cells were then centrifuged for 15 min at 16000 rcf, in a pre-cooled centrifuge (4° C.) and resuspended in the previous buffer containing 10% sucrose. Finally, the membranes were again homogenized in ice with the small volume ULTRA-TURRAX® (3×10 sec). The protein concentration in the membrane extracts was determined using a Pierce™ bicinchoninic acidv (BCA) Protein Assay Kit and the protein concentration was extrapolated from the Bovine Serum Albumine standard curve.
The M1R constructs used in this assay consisted of the full-length human muscarinic 1 receptor with a FLAG tag at the N-terminus. A buffer containing 20 mM Hepes pH 7.4, 100 mM NaCl, and 0.1% BSA was used for the ligands, membrane extracts and peptides (+1% dimethylsulfoxide (DMSO)). The competition assay was performed with [3H]—N-methyl scopolamine ([3H]-NMS) as radiolabeled antagonist, at a final concentration of 0.6 nM. A ten-fold dilution series of the agonist, acetylcholine chloride, was prepared to obtain a dose response curve. After incubation, the samples were harvested into filter plates (GF/C) and washed with ice cold washing buffer (20 mM Hepes pH 7.4) using the 96-well harvester. […]

HEK293 1C8 cells = test: MTT cytotoxicity assay; format: cell-based, human; conditions: varying concentrations up to 40 μM, 3 h 45 min
Method: Cells were washed two times with PBS and incubated with 3-(4,5-dimethylthiazol-2-yl)-2,5-diphenyltetrazolium bromide (MTT) during 3 h, at 37° C. Afterwards, cells were washed once with PBS and then incubated for 10 min with DMSO. Plates were analysed with a Tecan Spark 10 M microplate reader.
An MTT assay was used to assess the cytotoxicity of the non-fluorescent Gq/11 peptidomimetics of Example 5. An MTT assay is a colorimetric test that evaluates the cell metabolic activity and reflects the cell viability.

Q: What does the source list for `CC[C@H](C)[C@H](NC(=O)[C@@H](NC(=O)[C@H](CC(=O)O)NC(=O)[C@H](CCCCN)NC(=O)[C@@H](NC(=O)[C@H](C)NC(=O)[C@H](C)NC(=O)[C@H](Cc1ccccc1)NC(=O)[C@H](CCCCN)NC(=O)[C@H](CCCCN)NC(=O)[C@H](CCCCN)NC(C)=O)C(C)C)[C@@H](C)O)C(=O)N[C@@H](CC(C)C)C(=O)N[C@@H](CCC(N)=O)C(=O)N[C@@H](CC(C)C)C(=O)N[C@@H](CC(N)=O)C(=O)N[C@@H](CC(C)C)C(=O)N[C@@H](CCCCN)C(=O)N[C@@H](CCC(=O)O)C(=O)N[C@@H](Cc1ccc(O)cc1)C(=O)N[C@@H](CC(N)=O)C(=O)N[C@@H](CC1CCCCC1)C(=O)N[C@H](C(=O)O)C(C)C` [SBL-GQ-04] (Ac-KKKFAAVKDTILQLNLKEYN[Cha]V-OH)?
A: Shift [1]: 4; cytotoxicity / viability (HEK293 1C8 cells): No cytotoxicity
